Laboratory results taken from ChEMBL document CHEMBL3044763, “Inhibitory Activities of Rhodanine Derivatives on Plant Growth” (Biosci Biotechnol Biochem, 1996).

How the values were obtained:
[1] = Toxicity in Mus musculus ddY (mouse) assessed as mortality at 450 mg/kg, ip after 3 days; format: organism-based; set-up: dose 450 mg/kg, route intraperitoneal; conditions: in vivo
[2] = Toxicity in Mus musculus ddY (mouse) assessed as mortality at 650 mg/kg, ip after 3 days; format: organism-based; set-up: dose 650 mg/kg, route intraperitoneal; conditions: in vivo
[3] = system: Brassica rapa subsp. oleifera; experiment: Growth inhibition of Brassica rapa subsp. oleifera assessed as root growth at 5 x 10^-5 M after 7 days; format: functional
[4] = system: Brassica rapa subsp. oleifera; experiment: Growth inhibition of Brassica rapa subsp. oleifera assessed as root growth at 1 x 10^-4 M after 7 days; format: functional
[5] = system: Brassica rapa subsp. oleifera; experiment: Growth inhibition of Brassica rapa subsp. oleifera assessed as total chlorophyll level at 3 x 10^-4 M after 7 days; format: functional; set-up: scale not given: the % may be the effect or the level left
[6] = Toxicity in Mus musculus ddY (mouse) assessed as mortality at 550 mg/kg, ip after 2 days; format: organism-based; set-up: dose 550 mg/kg, route intraperitoneal; conditions: in vivo
[7] = system: Brassica rapa subsp. oleifera; experiment: Growth inhibition of Brassica rapa subsp. oleifera assessed as chlorophyll a level at 3 x 10^-5 M after 7 days; format: functional; set-up: scale not given: the % may be the effect or the level left
[8] = Toxicity in Mus musculus ddY (mouse) assessed as mortality at 400 mg/kg, ip after 1 day; format: organism-based; set-up: dose 400 mg/kg, route intraperitoneal; conditions: in vivo
[9] = system: Brassica rapa subsp. oleifera; experiment: Growth inhibition of Brassica rapa subsp. oleifera assessed as root growth at 3 x 10^-5 M after 7 days; format: functional
[10] = Toxicity in Mus musculus ddY (mouse) assessed as mortality at 400 mg/kg, ip after 5 days; format: organism-based; set-up: dose 400 mg/kg, route intraperitoneal; conditions: in vivo
[11] = system: Brassica rapa subsp. oleifera; experiment: Growth inhibition of Brassica rapa subsp. oleifera assessed as chlorophyll b level at 3 x 10^-5 M after 7 days; format: functional; set-up: scale not given: the % may be the effect or the level left
[12] = system: Brassica rapa subsp. oleifera; experiment: Growth inhibition of Brassica rapa subsp. oleifera assessed as chlorophyll a level at 5 x 10^-5 M after 7 days; format: functional; set-up: scale not given: the % may be the effect or the level left
[13] = Toxicity in Mus musculus ddY (mouse) assessed as mortality at 550 mg/kg, ip after 4 days; format: organism-based; set-up: dose 550 mg/kg, route intraperitoneal; conditions: in vivo
[14] = Toxicity in Mus musculus ddY (mouse) assessed as mortality at 450 mg/kg, ip after 4 days; format: organism-based; set-up: dose 450 mg/kg, route intraperitoneal; conditions: in vivo
[15] = Toxicity in Mus musculus ddY (mouse) assessed as mortality at 600 mg/kg, ip after 3 days; format: organism-based; set-up: dose 600 mg/kg, route intraperitoneal; conditions: in vivo
[16] = system: Brassica rapa subsp. oleifera; experiment: Growth inhibition of Brassica rapa subsp. oleifera assessed as chlorophyll a level at 1 x 10^-4 M after 7 days; format: functional; set-up: scale not given: the % may be the effect or the level left
[17] = Toxicity in Mus musculus ddY (mouse) assessed as mortality at 600 mg/kg, ip after 2 days; format: organism-based; set-up: dose 600 mg/kg, route intraperitoneal; conditions: in vivo
[18] = system: Brassica rapa subsp. oleifera; experiment: Growth inhibition of Brassica rapa subsp. oleifera assessed as chlorophyll b level at 3 x 10^-4 M after 7 days; format: functional; set-up: scale not given: the % may be the effect or the level left
[19] = Toxicity in Mus musculus ddY (mouse) assessed as mortality at 550 mg/kg, ip after 5 days; format: organism-based; set-up: dose 550 mg/kg, route intraperitoneal; conditions: in vivo
[20] = Toxicity in Mus musculus ddY (mouse) assessed as mortality at 600 mg/kg, ip after 7 days; format: organism-based; set-up: dose 600 mg/kg, route intraperitoneal; conditions: in vivo
[21] = system: Brassica rapa subsp. oleifera; experiment: Growth inhibition of Brassica rapa subsp. oleifera assessed as chlorophyll b level at 5 x 10^-5 M after 7 days; format: functional; set-up: scale not given: the % may be the effect or the level left
[22] = Toxicity in Mus musculus ddY (mouse) assessed as mortality at 450 mg/kg, ip after 7 days; format: organism-based; set-up: dose 450 mg/kg, route intraperitoneal; conditions: in vivo
[23] = Toxicity in Mus musculus ddY (mouse) assessed as mortality at 500 mg/kg, ip after 7 days; format: organism-based; set-up: dose 500 mg/kg, route intraperitoneal; conditions: in vivo
[24] = Toxicity in Mus musculus ddY (mouse) assessed as mortality at 500 mg/kg, ip after 3 days; format: organism-based; set-up: dose 500 mg/kg, route intraperitoneal; conditions: in vivo
[25] = Toxicity in Mus musculus ddY (mouse) assessed as mortality at 500 mg/kg, ip after 4 days; format: organism-based; set-up: dose 500 mg/kg, route intraperitoneal; conditions: in vivo
[26] = Toxicity in Mus musculus ddY (mouse) assessed as mortality at 600 mg/kg, ip after 6 days; format: organism-based; set-up: dose 600 mg/kg, route intraperitoneal; conditions: in vivo
[27] = system: Brassica rapa subsp. oleifera; experiment: Growth inhibition of Brassica rapa subsp. oleifera assessed as total chlorophyll level at 5 x 10^-5 M after 7 days; format: functional; set-up: scale not given: the % may be the effect or the level left
[28] = Toxicity in Mus musculus ddY (mouse) assessed as mortality at 650 mg/kg, ip after 2 days; format: organism-based; set-up: dose 650 mg/kg, route intraperitoneal; conditions: in vivo
[29] = system: Brassica rapa subsp. oleifera; experiment: Growth inhibition of Brassica rapa subsp. oleifera assessed as total chlorophyll level at 3 x 10^-5 M after 7 days; format: functional; set-up: scale not given: the % may be the effect or the level left

O=C(O)CN1C(=O)CSC1=S [RHODANINE-3-ACETIC ACID]
mortality at 72 h [1]: 0%
mortality at 72 h [2]: 100%
Root length [3]: 57.1 mm
Activity [4]: 39.8 mm
Activity [5]: 13.99%
mortality at 48 h [6]: 0%
Activity [7]: 18.01%
mortality at 24 h [8]: 0%
Root length [9]: 57 mm
mortality at 120 h [10]: 0%
Activity [11]: 7.05%
Activity [12]: 17.08%
mortality at 96 h [13]: 80%
mortality at 96 h [14]: 20%
mortality at 72 h [15]: 60%
Activity [16]: 14.1%
mortality at 48 h [17]: 60%
Activity [18]: 3.76%
mortality at 120 h [19]: 80%
mortality at 168 h [20]: 80%
Activity [21]: 7.35%
mortality at 168 h [22]: 20%
mortality at 168 h [23]: 40%
mortality at 72 h [24]: 20%
mortality at 96 h [25]: 20%
mortality at 144 h [26]: 80%
Activity [27]: 24.42%
mortality at 48 h [28]: 100%
Activity [29]: 25.06%
